In patent EP0416393A1, “Peptidyl difluorodiol renin inhibitors” (ABBOTT LABORATORIES, priority 1989, dated 1991):
Values belong to the compound of their own block, whether it stands above or below them.

Columns and labels:
[1] = tested on: male cynomolgus monkeys (M. fascicularis); experiment: In vivo intraduodenal activity: blood pressure in salt-depleted, anesthetized monkeys; settings: 1.0 mg/kg intraduodenal
Description: Intraduodenal activity for the resultant compound from Example 105 was determined at 1.0 mg/kg in male cynomolgus monkeys (M. fascicularis) weighing between 3 and 5 kg. The monkeys were fed a low-salt chow and fresh fruit diet and treated twice with furosemide (5 mg/kg, po), 1 week and 1 day before the experiment. Following this regimen renders the monkeys in a salt-depleted state, characterized by normal base-line blood pressures but elevated plasma renin activities. The monkeys were fasted overnight and studied under anesthesia on the day of the experiment (sodium pentobarbitol, 15 mg/kg bolus + 0.10 mg/kg/min maintenance iv infusion). A femoral artery was catherterized for the direct and continuous measurement of blood pressure (Grass Pressure Transducer Model P23dB and Graph Polygraph Model 7). The compound was tested for intraduodenal activity via a catheter placed directly into the proximal segment of the duodenum following a laparotomy. Each monkey received only one dose of compound.

human renal renin = biological target: T1, human renal renin (Homo sapiens, UniProt P00797); experiment: Inhibition of human renal renin with human angiotensinogen substrate; angiotensin I formed measured by radioimmunoassay; format: biochemical; settings: 37 degrees C, pH 6.0; read-out: IC₅₀
T1 construct: human renal renin, free from acid proteolytic activity; from tissue; host or cells: human kidney (concluded from the word 'renal')
T1 sequence (P00797 67-406): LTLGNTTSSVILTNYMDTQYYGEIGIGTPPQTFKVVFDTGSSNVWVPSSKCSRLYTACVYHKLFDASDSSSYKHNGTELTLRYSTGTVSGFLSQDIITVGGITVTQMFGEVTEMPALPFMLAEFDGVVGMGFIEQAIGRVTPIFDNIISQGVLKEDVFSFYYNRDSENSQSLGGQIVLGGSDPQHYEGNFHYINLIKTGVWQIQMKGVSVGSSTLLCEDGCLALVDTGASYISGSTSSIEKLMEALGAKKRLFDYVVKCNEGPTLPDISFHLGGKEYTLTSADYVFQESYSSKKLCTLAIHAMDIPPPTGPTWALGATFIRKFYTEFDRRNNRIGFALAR
Description: At the end of the incubation, the amount of angiotensin I formed is measured by radioimmunoassay and the molar concentration required to cause 50% inhibition, expressed as the IC₅₀ is calculated. […]

IC50 (human renal renin): 1 nM
Compound: CC(C)[C@@H](O)C(F)(F)[C@H](O)[C@H](CC1CCCCC1)NC(=O)C(Cc1cnc[nH]1)NC(=O)C(Cc1ccc(O)cc1)N(C)C(=O)CC(C)(C)NC(=O)OCc1ccccc1 (stereo partly drawn) [Example 80, Cbz((β,β-di-Me)-β-Ala)-(Me)Tyr-His amide of 2(S)-Amino-1-cyclohexyl-4,4-difluoro-3(R),5(R)-dihydroxy-6-methylheptane]

IC50 (human renal renin): 1.5 nM
Compound: CC(C)[C@@H](O)C(F)(F)[C@H](O)[C@H](CC1CCCCC1)NC(=O)[C@H](Cc1c[nH]cn1)NC(=O)[C@@H](CC(=O)N1CCOCC1)Cc1ccccc1 [Example 83, 2(R)-2-Benzyl-3-Morpholinocarbonylpropionic acid amide of His-2(S)-Amino-1-cyclohexyl-4,4-difluoro-3(R),5(R)-dihydroxy-6-methylheptane]

IC50 (human renal renin): 1.1 nM
Compound: Cbz((β,β-di-Me)-β-Ala)-Phe-His amide of 2(S)-Amino-1-cyclohexyl-4,4-difluoro-3(R),5(R)-dihydroxy-6-methylheptane [Example 79]

IC50 (human renal renin): 0.69 nM
Compound: CC(C)CC(NC(=O)C(Cc1ccccc1)NC(=O)OC(C)(C)C)C(=O)NC(CC1CCCCC1)C(=O)C(F)(F)C(=O)C(C)C [Example 98, Boc-Phe-Leu amide of 2(S)-Amino-1-cyclohexyl-4,4-difluoro-3,5-dioxo-6-methylheptane]

IC50 (human renal renin): 5.2 nM
Compound: CC(C)C(O)C(F)(F)C(O)C(CC1CCCCC1)NC(=O)C(Cc1c[nH]cn1)NC(=O)C(=Cc1ccccc1)CC(=O)N1CCOCC1 [Example 87, (E)-2-((4-Morpholinylcarbonyl)methyl)cinnamic acid amide of His-2(S)-amino-1-cyclohexyl-4,4-difluoro-3(R),5(R)-dihydroxy-6-methylheptane]

IC50 (human renal renin): 1.2 nM
Compound: CC(C)C(O)C(F)(F)C(O)C(CC1CCCCC1)NC(=O)C(Cc1c[nH]cn1)NC(=O)C(CC(=O)N1CCOCC1)Cc1cccc2ccccc12 [Example 86, 2(R,S)-(4-morpholinylcarbonylmethyl)-3-(1′-naphthyl)-propionic acid amide of His-2(S)-amino-1-cyclohexyl-4,4-difluoro-3(R),5(R)-dihydroxy-6-methylheptane]

The next lines start with the compound.

Compound: CC(C)[C@@H](O)C(F)(F)[C@H](O)[C@H](CC1CCCCC1)NC(=O)[C@H](Cc1cscn1)NC(=O)[C@@H](CC(=O)N(C)CCn1cccn1)Cc1ccccc1 [Example 105, (2R)-2-Benzyl-3-[(2-pyrazol-1-ylethyl)methylaminocarbonyl]propionic acid amide of L-(4-thiazolyl)alanine-2(S)-amino-1-cyclohexyl-4,4-difluoro-3(R),5(R)-dihydroxy-6-methylheptane]
MBP (Mean blood pressure) ([1]; Monkey A, Time 0 min): 85 mm Hg
MBP (Mean blood pressure) ([1]; Monkey A, Time 5 min): 85 mm Hg
MBP (Mean blood pressure) ([1]; Monkey A, Time 10 min): 74 mm Hg
MBP (Mean blood pressure) ([1]; Monkey A, Time 15 min): 69 mm Hg
MBP (Mean blood pressure) ([1]; Monkey A, Time 20 min): 65 mm Hg
MBP (Mean blood pressure) ([1]; Monkey A, Time 25 min): 67 mm Hg
MBP (Mean blood pressure) ([1]; Monkey A, Time 30 min): 70 mm Hg
MBP (Mean blood pressure) ([1]; Monkey A, Time 35 min): 71 mm Hg
MBP (Mean blood pressure) ([1]; Monkey A, Time 40 min): 74 mm Hg
MBP (Mean blood pressure) ([1]; Monkey A, Time 45 min): 74 mm Hg
MBP (Mean blood pressure) ([1]; Monkey A, Time 50 min): 76 mm Hg
MBP (Mean blood pressure) ([1]; Monkey A, Time 55 min): 77 mm Hg
MBP (Mean blood pressure) ([1]; Monkey A, Time 60 min): 79 mm Hg
MBP (Mean blood pressure) ([1]; Monkey A, Time 65 min): 79 mm Hg
MBP (Mean blood pressure) ([1]; Monkey A, Time 70 min): 79 mm Hg
MBP (Mean blood pressure) ([1]; Monkey A, Time 75 min): 80 mm Hg
MBP (Mean blood pressure) ([1]; Monkey A, Time 80 min): 79 mm Hg
MBP (Mean blood pressure) ([1]; Monkey A, Time 85 min): 80 mm Hg
MBP (Mean blood pressure) ([1]; Monkey A, Time 90 min): 80 mm Hg
MBP (Mean blood pressure) ([1]; Monkey A, Time 95 min): 81 mm Hg
MBP (Mean blood pressure) ([1]; Monkey A, Time 100 min): 82 mm Hg
MBP (Mean blood pressure) ([1]; Monkey A, Time 105 min): 83 mm Hg
MBP (Mean blood pressure) ([1]; Monkey A, Time 109 min): 81 mm Hg
MBP (Mean blood pressure) ([1]; Monkey A, Time 114 min): 81 mm Hg
MBP (Mean blood pressure) ([1]; Monkey A, Time 119 min): 81 mm Hg
MBP (Mean blood pressure) ([1]; Monkey B, Time 0 min): 89 mm Hg
MBP (Mean blood pressure) ([1]; Monkey B, Time 5 min): 88 mm Hg
MBP (Mean blood pressure) ([1]; Monkey B, Time 10 min): 76 mm Hg
MBP (Mean blood pressure) ([1]; Monkey B, Time 15 min): 79 mm Hg
MBP (Mean blood pressure) ([1]; Monkey B, Time 20 min): 75 mm Hg
MBP (Mean blood pressure) ([1]; Monkey B, Time 25 min): 74 mm Hg
MBP (Mean blood pressure) ([1]; Monkey B, Time 30 min): 75 mm Hg
MBP (Mean blood pressure) ([1]; Monkey B, Time 35 min): 78 mm Hg
MBP (Mean blood pressure) ([1]; Monkey B, Time 40 min): 83 mm Hg
MBP (Mean blood pressure) ([1]; Monkey B, Time 44 min): 83 mm Hg
MBP (Mean blood pressure) ([1]; Monkey B, Time 49 min): 82 mm Hg
MBP (Mean blood pressure) ([1]; Monkey B, Time 54 min): 83 mm Hg
MBP (Mean blood pressure) ([1]; Monkey B, Time 59 min): 86 mm Hg
MBP (Mean blood pressure) ([1]; Monkey B, Time 64 min): 83 mm Hg
MBP (Mean blood pressure) ([1]; Monkey B, Time 69 min): 86 mm Hg
MBP (Mean blood pressure) ([1]; Monkey B, Time 74 min): 87 mm Hg
MBP (Mean blood pressure) ([1]; Monkey B, Time 79 min): 89 mm Hg
MBP (Mean blood pressure) ([1]; Monkey B, Time 84 min): 87 mm Hg
MBP (Mean blood pressure) ([1]; Monkey B, Time 89 min): 92 mm Hg
MBP (Mean blood pressure) ([1]; Monkey B, Time 94 min): 86 mm Hg
MBP (Mean blood pressure) ([1]; Monkey B, Time 99 min): 90 mm Hg
MBP (Mean blood pressure) ([1]; Monkey B, Time 104 min): 91 mm Hg
MBP (Mean blood pressure) ([1]; Monkey B, Time 109 min): 90 mm Hg
MBP (Mean blood pressure) ([1]; Monkey B, Time 114 min): 92 mm Hg
MBP (Mean blood pressure) ([1]; Monkey B, Time 119 min): 92 mm Hg
IC50 (human renal renin): 0.35 nM

Compound: CC(O)C(F)(F)C(O)C(CC1CCCCC1)NC(=O)C(Cc1c[nH]cn1)NC(=O)C(Cc1ccccc1)NC(=O)OC(C)(C)C [Example 78, Boc-Phe-His amide of 2(S)-Amino-1-cyclohexyl-4,4-difluoro-3(R),5(R,S)-dihydroxyhexane]
IC50 (human renal renin): 2.5 nM

Compound: CC(C)C[C@H](NC(=O)[C@H](Cc1ccccc1)NC(=O)OC(C)(C)C)C(=O)N[C@@H](CC1CCCCC1)[C@@H](O)C(F)(F)[C@H](O)C(C)C [Example 60, Boc-Phe-Leu amide of 2(S)-Amino-1-cyclohexyl-4,4-difluoro-3(R),5(R)dihydroxy-6-methylheptane]
IC50 (human renal renin): 0.64 nM

Compound: CC(C)CC(NC(=O)C(Cc1ccccc1)NC(=O)OC(C)(C)C)C(=O)NC(CC1CCCCC1)C(O)C(F)(F)C(O)C(C)C [Example 61, Boc-Phe-Leu amide of 2(S)-Amino-1-cyclohexyl-4,4-difluoro-3(R),5(S)-dihydroxy-6-methylheptane]
IC50 (human renal renin): 22 nM

Compound: CC(C)[C@@H](O)C(F)(F)[C@H](O)[C@H](CC1CCCCC1)NC(=O)[C@H](Cc1c[nH]cn1)NC(=O)[C@H](Cc1ccccc1)NC(=O)OC(C)(C)C [Example 77, Boc-Phe-His-amide of 2(S)-Amino-1-cyclohexyl-4,4-difluoro-3(R),5(R)-dihydroxy-6-methylheptane]
IC50 (human renal renin): 1.2 nM

Compound: CC(C)[C@@H](O)C(F)(F)[C@H](O)[C@H](CC1CCCCC1)NC(=O)[C@H](Cc1cscn1)NC(=O)[C@@H](CC(=O)N1CCN(C)CC1)Cc1ccccc1 [Example 93, 2(R)-2-Benzyl-3(4-methylpiperazine-1-ylcarbonyl)propionic acid amide of L-(4-thiazolyl)alamine-2(S) amino-1-cyclohexyl-4,4-difluoro-3(R),5(R)-dihydroxy-6-methylheptane]
IC50 (human renal renin): 1.5 nM
